Assay results: patent US11925624B2, “Methods of administering anti-fibrotic therapy” (GENENTECH, INC., priority 2016, dated 2024)
Like-named read-outs stand apart in the source and are kept apart here.

Experiment: Phase 1 Part A food effect (high-fat / low-fat breakfast) on single-dose pharmacokinetics
Type: in vivo, human
Details: for Test/Reference ratio of LS means, AUC0-t / Test/Reference ratio of LS means, AUC0-∞ / Test/Reference ratio of LS means, Cmax: 400 mg Fed; for % AUCextrap: arithmetic mean; for Tmax / AUC(0-t) / AUC(0-inf) / Cmax / Vd/F / half-life: human, plasma, oral
From the text: This study was a randomized, blinded, placebo-controlled, ascending-dose study to evaluate the safety, tolerability, and pharmacokinetic (PK) of single (Part A) and multiple (Part B) doses of Compound I in healthy subjects. In addition, the effects of a standard high-fat breakfast, standard low-fat breakfast, and pretreatment and co-administration of a proton pump inhibitor (PPI) on the tolerability and PK of a single dose of Compound I were investigated in 2 groups in Part A. All subjects received their full dose of Compound I, administered as the appropriate number of either 25 or 200 mg tablets. The high fat breakfast comprised the following: total energy: 895 kcal; total fat: 61 g; total protein: 41 g; total carbohydrate: 46 g. The low fat breakfast comprised the following: total energy: 611 kcal; total fat: 14.7 g; total protein: 20.3 g; total carbohydrate: 106.3 g.
For Group A4, doses (400 mg Compound I or placebo) during Treatment Period 1 were administered in a fasted state on the morning of Day 1. Doses in Treatment Period 2 were administered 30 minutes after starting, and within approximately 10 minutes of completing, a high-fat standard breakfast on the morning of Day 1. Doses during Treatment Period 3 were administered 30 minutes after starting, and within approximately 10 minutes of completing a low-fat standard meal on the morning of Day 1. Doses during Treatment Period 4 were administered on Day 1 after an overnight fast and following administration of a PPI (rabeprazole 20 mg) for 3 days (given as 3 daily [QD] doses, with the final PPI dose at 2 hours prior to study drug administration on Day 1). Subjects in Group A4 received the same Compound I or placebo treatment in all treatment periods, such that each subject received up to 4 single doses of Compound I or placebo.
For Group A5, doses (800 mg Compound I or placebo) during Treatment Period 1 were administered in a fasted state on the morning of Day 1, doses during Treatment Period 2 were administered 30 minutes after starting a low-fat standard breakfast on the morning of Day 1, and doses during Treatment Period 3 were administered on Day 1 after a low-fat meal and following administration of a PPI (rabeprazole 20 mg) for 3 days (given as 3 QD doses, with the final PPI dose at 2 hours prior to study drug administration on Day 1). Subjects in Group A5 received the same Compound I or placebo treatment in all treatment periods, such that each subject received up to 3 single doses of Compound I or placebo.
For Group A4, each subject participated in 3 additional treatment periods, each separated by a minimum of 7 days. Group A4 resided at the CRU from Day −1 to Day 4 of Treatment Periods 2, 3, and 4. For Group A5, each subject participated in 2 additional treatment periods, each separated by a minimum of 7 days. Group A5 resided at the CRU from Day −1 to Day 4 of Treatment Periods 2 and 3. All subjects returned for a Follow-up visit between 5 to 14 days after their final dose of study treatment.
In Part A, all doses in Treatment Period 1 were administered after an overnight fast of at least 8 hours. For the A4 cohort, in Treatment Periods 2 and 3, doses were administered 30 minutes after starting and approximately 10 minutes after completing a high- or low-fat breakfast. In Treatment Period 4, the dose was administered after an overnight fast and following administration of a PPI (PPI was comprised of 3 doses of rabeprazole 20 mg, starting on Day −2 and with the final dose 2 hours before Compound I administration on Day 1). For Group A5, doses during Treatment Period 2 were administered 30 minutes after starting and approximately 10 minutes after completing a low-fat standard breakfast on the morning of Day 1, and doses during Treatment Period 3 were administered on Day 1 after a low-fat meal and following administration of a PPI for 3 days (given as 3 QD doses, with the final PPI dose at 2 hours prior to study drug administration on Day 1).

[1] = High-fat (Test) vs 400 mg Fasted (Reference)
[2] = High-fat (Test) vs 400 mg Fed, Low-fat (Reference)
[3] = Low-fat (Test) vs 400 mg Fasted (Reference)
[4] = 400 mg single dose (A4), Fed, High-fat
[5] = 400 mg single dose (A4), Fed, Low-fat
[6] = 800 mg single dose (A5), Fed, Low-fat
[7] = 800 mg, low-fat fed state vs fasted
[8] = Table 3, 4th section, Low-fat (Test) vs 400 mg Fasted (Reference), n = 6
[9] = high-fat fed state from the fasted state

Compound: Cn1cc(-c2cn(-c3ccc(OC(F)(F)F)cc3)c(=O)c3ncn(C)c23)cn1 [Compound I]
- Test/Reference ratio of LS means, AUC0-t [1]: 149.0%
- Test/Reference ratio of LS means, AUC0-∞ [1]: 145.8%
- Test/Reference ratio of LS means, Cmax [1]: 168.9%
- Test/Reference ratio of LS means, AUC0-t [2]: 108.7%
- Test/Reference ratio of LS means, AUC0-∞ [2]: 108.2%
- Test/Reference ratio of LS means, Cmax [2]: 102.7%
- Test/Reference ratio of LS means, AUC0-t [3]: 137.1%
- Test/Reference ratio of LS means, AUC0-∞ [3]: 134.7%
- Test/Reference ratio of LS means, Cmax [3]: 164.4%
- AUC0-t (norm) [4]: 14000 (hr*ng/mL)/(mg/kg)
- AUC0-∞ (norm) [4]: 14100 (hr*ng/mL)/(mg/kg)
- CL/F [4]: 83.0 mL/min
- CL/F(norm) [4]: 1.19 (mL/min)/kg
- Cmax (norm) [4]: 1330 ng/mL/mg/kg
- λZ [4]: 0.0861 h⁻¹
- % AUCextrap [4]: 0.213%
- AUC0-t (norm) [5]: 12900 (hr*ng/mL)/(mg/kg)
- AUC0-∞ (norm) [5]: 13000 (hr*ng/mL)/(mg/kg)
- CL/F [5]: 89.8 mL/min
- CL/F(norm) [5]: 1.28 (mL/min)/kg
- Cmax (norm) [5]: 1300 ng/mL/mg/kg
- λZ [5]: 0.0852 h⁻¹
- % AUCextrap [5]: 0.691%
- AUC0-t (norm) [6]: 14300 (hr*ng/mL)/(mg/kg)
- AUC0-∞ (norm) [6]: 14400 (hr*ng/mL)/(mg/kg)
- CL/F [6]: 83.3 mL/min
- CL/F(norm) [6]: 1.16 (mL/min)/kg
- Cmax (norm) [6]: 1200 ng/mL/mg/kg
- λZ [6]: 0.0793 h⁻¹
- % AUCextrap [6]: 0.395%
- Ratio of fed to fasted, AUC0-t [7]: 214.0%
- Ratio of fed to fasted, AUC0-∞ [7]: 203.3%
- Ratio of fed to fasted, Cmax [7]: 225.5%
- Test/Reference ratio of LS means, AUC0-t [8]: 214.0%
- Test/Reference ratio of LS means, AUC0-∞ [8]: 203.3%
- Test/Reference ratio of LS means, Cmax [8]: 225.5%
- Food effect on bioavailability (administration with food (high fat or low fat meal)): positive food effect
- Increase in AUC0-t [9]: 49.0%
- Increase in AUC0-∞ [9]: 45.8%
- Increase in Cmax [9]: 68.9%
- Tmax (400 mg, 400 mg single dose (A4), Fed, High-fat, median, read-out: tmax): 3.5 h
- AUC(0-t) (400 mg, 400 mg single dose (A4), Fed, High-fat, read-out: AUC0-t): 80200 ng·h/mL
- AUC(0-inf) (400 mg, 400 mg single dose (A4), Fed, High-fat, read-out: AUC0-∞): 80300 ng·h/mL
- Cmax (400 mg, 400 mg single dose (A4), Fed, High-fat, read-out: Cmax): 7620 ng/mL
- Vd/F (400 mg, 400 mg single dose (A4), Fed, High-fat, read-out: Vz/F): 57.8 L
- Vd/F (400 mg, 400 mg single dose (A4), Fed, High-fat, read-out: Vz/F(norm)): 0.826 L/kg
- half-life (400 mg, 400 mg single dose (A4), Fed, High-fat, read-out: t1/2 (converted)): 8.05 h
- Tmax (400 mg, 400 mg single dose (A4), Fed, Low-fat, median, read-out: tmax): 2.5 h
- AUC(0-t) (400 mg, 400 mg single dose (A4), Fed, Low-fat, read-out: AUC0-t): 73700 ng·h/mL
- AUC(0-inf) (400 mg, 400 mg single dose (A4), Fed, Low-fat, read-out: AUC0-∞): 74200 ng·h/mL
- Cmax (400 mg, 400 mg single dose (A4), Fed, Low-fat, read-out: Cmax): 7420 ng/mL
- Vd/F (400 mg, 400 mg single dose (A4), Fed, Low-fat, read-out: Vz/F): 63.3 L
- Vd/F (400 mg, 400 mg single dose (A4), Fed, Low-fat, read-out: Vz/F(norm)): 0.904 L/kg
- half-life (400 mg, 400 mg single dose (A4), Fed, Low-fat, read-out: t1/2 (converted)): 7.52 h
- AUC(0-t) (400 mg, Table 3, 4th section, 400 mg Compound I Fasted, n = 6, read-out: LS Means AUC0-t (Reference)): 74500 ng·h/mL
- AUC(0-inf) (400 mg, Table 3, 4th section, 400 mg Compound I Fasted, n = 6, read-out: LS Means AUC0-∞ (Reference)): 78700 ng·h/mL
- Cmax (400 mg, Table 3, 4th section, 400 mg Compound I Fasted, n = 6, read-out: LS Means Cmax (Reference)): 5910 ng/mL
- Cmax (400 mg, Table 3, 4th section, 400 mg Compound I Fed, Low-fat, n = 6, read-out: LS Means Cmax (Test)): 13300 ng/mL
- AUC(0-t) (400 mg, Table 3, 4th section, head as printed:, n = 6, read-out: LS Means AUC0-t (Test)): 159000 ng·h/mL
- AUC(0-inf) (400 mg, Table 3, 4th section, head as printed:, n = 6, read-out: LS Means AUC0-∞ (Test)): 160000 ng·h/mL
- Tmax (400 mg, high-fat fed state, read-out: tmax values, range): 1.5 to 6 h
- Tmax (800 mg, 800 mg single dose (A5), Fed, Low-fat, median, read-out: tmax): 3 h
- AUC(0-t) (800 mg, 800 mg single dose (A5), Fed, Low-fat, read-out: AUC0-t): 159000 ng·h/mL
- AUC(0-inf) (800 mg, 800 mg single dose (A5), Fed, Low-fat, read-out: AUC0-∞): 160000 ng·h/mL
- Cmax (800 mg, 800 mg single dose (A5), Fed, Low-fat, read-out: Cmax): 13300 ng/mL
- Vd/F (800 mg, 800 mg single dose (A5), Fed, Low-fat, read-out: Vz/F): 63 L
- Vd/F (800 mg, 800 mg single dose (A5), Fed, Low-fat, read-out: Vz/F(norm)): 0.876 L/kg
- half-life (800 mg, 800 mg single dose (A5), Fed, Low-fat, read-out: t1/2 (converted)): 8.74 h
- half-life (800 mg, 400 and 800 mg, high- and low-fat states, read-out: Geometric mean t1/2, range): 7.5 to 8.7 h
- Tmax (low-fat fed state, read-out: tmax values, range): 1 to 4 h
- Increase in AUC0-t (low-fat fed state (vs fasted)): 37.1%
- Increase in AUC0-∞ (low-fat fed state (vs fasted)): 34.7%
- Increase in Cmax (low-fat fed state (vs fasted)): 64.4%
